PubChem BioAssay AID1259407 (Chemical Carcinogenesis Research Information System (CCRIS), 2018)
Activity calls are given as the source filed them. How the calls were made is not given here.

Tested on: CCRIS mutagenicity, Ames/micronucleus/aberration tests
Assay: CCRIS mutagenicity studies
[1] = Test System: AMES SALMONELLA TYPHIMURIUM, Strain/Indicator: TA100, Metabolic Activation: NONE, Method: STANDARD PLATE

In the case of Nc1cc2c3ccccc3ccc2c2ccccc12, the mutagenic call (Test System: AMES SALMONELLA TYPHIMURIUM, Strain/Indicator: TA98 (1,8-DNP6), Metabolic Activation: RAT LIVER, CYTOSOL, AROCLOR 1254, Method: STANDARD PLATE) is reported as “inactive; negative”, the mutagenic call (Test System: AMES SALMONELLA TYPHIMURIUM, Strain/Indicator: TA98 (1,8-DNP6), Metabolic Activation: RAT LIVER, MICROSOMES, AROCLOR 1254, Method: STANDARD PLATE) is reported as “active; positive” and the mutagenic call (Test System: AMES SALMONELLA TYPHIMURIUM, Strain/Indicator: TA98, Metabolic Activation: FERRET, LIVER, CYTOSOL, Method: STANDARD PLATE) is reported as “inactive; negative”. The mutagenic call (Test System: AMES SALMONELLA TYPHIMURIUM, Strain/Indicator: TA98, Metabolic Activation: FERRET, LIVER, MICROSOMES, Method: STANDARD PLATE) was “inactive; negative”, the mutagenic call (Test System: AMES SALMONELLA TYPHIMURIUM, Strain/Indicator: TA98, Metabolic Activation: HAMSTER, LIVER, CYTOSOL, Method: STANDARD PLATE) was “inactive; negative” and the mutagenic call (Test System: AMES SALMONELLA TYPHIMURIUM, Strain/Indicator: TA98, Metabolic Activation: HAMSTER, LIVER, MICROSOMES, Method: STANDARD PLATE) was “active; positive”. The mutagenic call (Test System: AMES SALMONELLA TYPHIMURIUM, Strain/Indicator: TA98, Metabolic Activation: HUMAN, LIVER, CYTOSOL, Method: STANDARD PLATE) was “active; positive”, the mutagenic call (Test System: AMES SALMONELLA TYPHIMURIUM, Strain/Indicator: TA98, Metabolic Activation: NONE, Method: PREINCUBATION) was “active; positive” and the mutagenic call (Test System: AMES SALMONELLA TYPHIMURIUM, Strain/Indicator: TA98, Metabolic Activation: PIG, LIVER, CYTOSOL, Method: STANDARD PLATE) was “active; positive”. The mutagenic call (Test System: AMES SALMONELLA TYPHIMURIUM, Strain/Indicator: TA98, Metabolic Activation: PIG, LIVER, MICROSOMES, Method: STANDARD PLATE) was “inactive; negative”, the mutagenic call (Test System: AMES SALMONELLA TYPHIMURIUM, Strain/Indicator: TA98, Metabolic Activation: RAT LIVER, CYTOSOL, AROCLOR 1254, Method: STANDARD PLATE) was “active; positive” and the mutagenic call (Test System: AMES SALMONELLA TYPHIMURIUM, Strain/Indicator: TA98, Metabolic Activation: RAT LIVER, MICROSOMES, AROCLOR 1254, Method: STANDARD PLATE) was “active; positive”. The mutagenic call (Test System: AMES SALMONELLA TYPHIMURIUM, Strain/Indicator: TA98, Metabolic Activation: RAT, LIVER, CYTOSOL, AROCLOR 1254, Method: STANDARD PLATE) was “active; positive”, the mutagenic call (Test System: AMES SALMONELLA TYPHIMURIUM, Strain/Indicator: TA98, Metabolic Activation: RAT, LIVER, CYTOSOL, BENZO[A]PYRENE, Method: STANDARD PLATE) was “active; positive” and the mutagenic call (Test System: AMES SALMONELLA TYPHIMURIUM, Strain/Indicator: TA98, Metabolic Activation: RAT, LIVER, CYTOSOL, CLOFIBRATE, Method: STANDARD PLATE) was “active; positive”. For the same molecule, the mutagenic call (Test System: AMES SALMONELLA TYPHIMURIUM, Strain/Indicator: TA98, Metabolic Activation: RAT, LIVER, CYTOSOL, DEXAMETHASONE, Method: STANDARD PLATE) was “active; positive”, the mutagenic call (Test System: AMES SALMONELLA TYPHIMURIUM, Strain/Indicator: TA98, Metabolic Activation: RAT, LIVER, CYTOSOL, ISONIAZID, Method: STANDARD PLATE) was “active; positive” and the mutagenic call (Test System: AMES SALMONELLA TYPHIMURIUM, Strain/Indicator: TA98, Metabolic Activation: RAT, LIVER, CYTOSOL, PHENOBARBITAL, Method: STANDARD PLATE) was “active; positive”. For the same molecule, the mutagenic call (Test System: AMES SALMONELLA TYPHIMURIUM, Strain/Indicator: TA98, Metabolic Activation: RAT, LIVER, MICROSOMES, AROCLOR 1254, Method: STANDARD PLATE) was “active; positive”, the mutagenic call (Test System: AMES SALMONELLA TYPHIMURIUM, Strain/Indicator: TA98, Metabolic Activation: RAT, LIVER, MICROSOMES, BENZO[A]PYRENE, Method: STANDARD PLATE) was “active; positive” and the mutagenic call (Test System: AMES SALMONELLA TYPHIMURIUM, Strain/Indicator: TA98, Metabolic Activation: RAT, LIVER, MICROSOMES, CLOFIBRATE, Method: STANDARD PLATE) was “active; positive”. For the same molecule, the mutagenic call (Test System: AMES SALMONELLA TYPHIMURIUM, Strain/Indicator: TA98, Metabolic Activation: RAT, LIVER, MICROSOMES, DEXAMETHASONE, Method: STANDARD PLATE) was “active; positive”, the mutagenic call (Test System: AMES SALMONELLA TYPHIMURIUM, Strain/Indicator: TA98, Metabolic Activation: RAT, LIVER, MICROSOMES, ISONIAZID, Method: STANDARD PLATE) was “active; positive” and the mutagenic call (Test System: AMES SALMONELLA TYPHIMURIUM, Strain/Indicator: TA98, Metabolic Activation: RAT, LIVER, MICROSOMES, PHENOBARBITAL, Method: STANDARD PLATE) was “active; positive”. For the same molecule, the mutagenic call (Test System: AMES SALMONELLA TYPHIMURIUM, Strain/Indicator: TA98, Metabolic Activation: RAT, LIVER, MICROSOMES, Method: STANDARD PLATE) was “active; positive”, the mutagenic call (Test System: AMES SALMONELLA TYPHIMURIUM, Strain/Indicator: TA98, Metabolic Activation: RAT, LIVER, S-9, AROCLOR 1254, Method: PREINCUBATION) was “active; positive” and the mutagenic call (Test System: AMES SALMONELLA TYPHIMURIUM, Strain/Indicator: TA100, Metabolic Activation: NONE, Method: PREINCUBATION) was “active; positive”. For the same molecule, the mutagenic call [1] was “inactive; negative”, the mutagenic call (Test System: AMES SALMONELLA TYPHIMURIUM, Strain/Indicator: TA100, Metabolic Activation: RAT, LIVER, MICROSOMES, 6-AMINOCHRYSENE, Method: STANDARD PLATE) was “inactive; negative” and the mutagenic call (Test System: AMES SALMONELLA TYPHIMURIUM, Strain/Indicator: TA100, Metabolic Activation: RAT, LIVER, MICROSOMES, AROCLOR 1254, Method: STANDARD PLATE) was “active; positive”. The mutagenic call (Test System: AMES SALMONELLA TYPHIMURIUM, Strain/Indicator: TA100, Metabolic Activation: RAT, LIVER, MICROSOMES, Method: STANDARD PLATE) was “active; positive”, the mutagenic call (Test System: AMES SALMONELLA TYPHIMURIUM, Strain/Indicator: TA100, Metabolic Activation: RAT, LIVER, S-9, AROCLOR 1254, Method: PREINCUBATION) was “active; positive” and the mutagenic call (Test System: AMES SALMONELLA TYPHIMURIUM, Strain/Indicator: TA100, Metabolic Activation: RAT, LIVER, S-9, AROCLOR 1254, Method: STANDARD PLATE) was “active; positive”. For the same molecule, the mutagenic call (Test System: AMES SALMONELLA TYPHIMURIUM, Strain/Indicator: TA1535, Metabolic Activation: NONE, Method: STANDARD PLATE) was “inactive; negative”, the mutagenic call (Test System: AMES SALMONELLA TYPHIMURIUM, Strain/Indicator: TA1535, Metabolic Activation: RAT, LIVER, S-9, AROCLOR 1254, Method: STANDARD PLATE) was “inactive; negative” and the mutagenic call (Test System: AMES SALMONELLA TYPHIMURIUM, Strain/Indicator: TA1537, Metabolic Activation: NONE, Method: STANDARD PLATE) was “inactive; negative”. For the same molecule, the mutagenic call (Test System: AMES SALMONELLA TYPHIMURIUM, Strain/Indicator: TA1538, Metabolic Activation: NONE, Method: STANDARD PLATE) was “inactive; negative”, the mutagenic call (Test System: CHINESE HAMSTER OVARY, Strain/Indicator: CHO-K1-BH4 (HGPRT)/6-THIOGUANINE, Metabolic Activation: NONE, Method: STANDARD PLATE) was “inactive; negative” and the mutagenic call (Test System: CHINESE HAMSTER OVARY, Strain/Indicator: CHO-K1-BH4 (HGPRT)/6-THIOGUANINE, Metabolic Activation: RAT, LIVER, S-9, AROCLOR 1254, Method: STANDARD PLATE) was “active; positive”. The mutagenic call (Test System: CHINESE HAMSTER OVARY, Strain/Indicator: CHO-UV5 (HGPRT)/6-THIOGUANINE, Metabolic Activation: NONE, Method: STANDARD PLATE) was “inactive; negative”, the mutagenic call (Test System: CHINESE HAMSTER OVARY, Strain/Indicator: CHO-UV5 (HGPRT)/6-THIOGUANINE, Metabolic Activation: RAT, LIVER, S-9, AROCLOR 1254, Method: STANDARD PLATE) was “active; positive” and the mutagenic call (Test System: UDS GUINEA PIG HEPATOCYTES, Strain/Indicator: THY INCORP, Metabolic Activation: NONE, Method: AUTORADIOGRAPHY) was “active; positive”. The mutagenic call (Test System: UDS HUMAN HEPATOCYTES, Strain/Indicator: THY INCORP, Metabolic Activation: NONE, Method: AUTORADIOGRAPHY) was “active; positive”, the mutagenic call (Test System: UDS MONKEY HEPATOCYTES, Strain/Indicator: THY INCORP, Metabolic Activation: NONE, Method: AUTORADIOGRAPHY) was “active; positive” and the mutagenic call (Test System: UDS RAT HEPATOCYTES, Strain/Indicator: THY INCORP, Metabolic Activation: AROCLOR 1254, Method: AUTORADIOGRAPHY) was “active; positive”. For the same molecule, the mutagenic call (Test System: UDS RAT HEPATOCYTES, Strain/Indicator: THY INCORP, Metabolic Activation: NONE, Method: AUTORADIOGRAPHY) was “active; positive”.

With Cc1ccc(S(=O)(=O)OC(C)C)cc1 the mutagenic call (End Point: IN VITRO MICRONUCLEUS, Test System: MOUSE LYMPHOMA L5178Y CELLS, Metabolic Activation: NONE) was “active; positive”, the mutagenic call (End Point: IN VITRO MICRONUCLEUS, Test System: MOUSE LYMPHOMA L5178Y CELLS, Metabolic Activation: RAT, LIVER, S-9) was “active; positive” and the mutagenic call (End Point: In vitro micronucleus, Test System: Chinese Hamster Ovary (CHO-WBL) cells, Metabolic Activation: None) was “active; positive (p<0.05)”. The mutagenic call [1] was “active; positive” and the mutagenic call (Test System: AMES SALMONELLA TYPHIMURIUM, Strain/Indicator: TA100, Metabolic Activation: RAT, LIVER, S-9, Method: STANDARD PLATE) was “active; positive”.

In the case of O=c1ccc2ccccc2[nH]1, the mutagenic call [1] is reported as “inactive; negative” and the mutagenic call (Test System: AMES SALMONELLA TYPHIMURIUM, Strain/Indicator: TA100, Metabolic Activation: RAT, LIVER, S-9, AROCLOR 1254 (10% OR 20%), Method: STANDARD PLATE) is reported as “inactive; negative”.
